Measured values reported in paper PMC12766730, “Controlled Self-Immolative Release of β‑Lapachone via an Optimized para-Hydroxybenzyl Linker for Targeted Pancreatic Cancer Therapy” (Journal of the American Chemical Society, 2025).
Like-named read-outs stand apart in the source and are kept apart here.

Key:
PANC-1 [1] = experiment: PDAC cell viability after 72 h of treatment, PANC-1; assay type: cell-based; details: Homo sapiens, PANC-1, exogenous β-glucuronidase added
Method: (§1) All ortho-quinone prodrug derivatives were tested on two pancreatic cancer cell lines, PANC-1 and AsPC-1, to assess efficacy in cell killing (Figures , S88–89, S91, Tables , and S8.1). Exogenous β-glucuronidase was added to the cell media to mimic the extracellular enzyme present in the TME. […] Those derivatives with release rates slower than that of 16a, like 16e, had less efficacy in cells comparatively (Table ).
(§2) 7 PDAC cell viability with prodrug treatment. Representative PANC-1 (a) and AsPC-1 (b) cell viability data of four β-lapachone prodrug derivatives after 72 h of treatment with exogenous β-glucuronidase added. Panels (c, d) show the toxicity of functional prodrugs up to 100 μM in PANC-1 (c) and AsPC-1 (d) cells without exogenous β-glucuronidase enzyme present after 72 h incubation.
(§3) To assess the TW of the prodrug derivatives, we tested each of them in both the PANC-1 and AsPC-1 cell lines at up to 100 μM without the β-glucuronidase enzyme present. In agreement with the HPLC stability assay data, we saw no toxicity in all stable prodrug derivatives up to this concentration (Figure c,d). […] In comparison, all the stable glucuronide prodrug derivatives retained 100% viability at 100 μM. […] It is generally considered that a drug has a good therapeutic safety profile if the TI is greater than 10, which our best derivatives far exceed, signaling that our prodrug is safe to deliver systemically in future in vivo experiments and should not cause any adverse effects in areas where β-glucuronidase is not overexpressed. ,

AsPC-1 [2] = experiment: PDAC cell viability after 72 h of treatment, AsPC-1; assay type: cell-based; details: Homo sapiens, ASPC1, exogenous β-glucuronidase added, average ± SD of biological replicates, read-out: AsPC-1 IC50
Method: as §1, §2, §3

[3] = HPLC stability assay of prodrugs in buffers pH 3, 5, 7, 7.4 (PBS), 9 at 37 °C for 72 h without trigger; assay type: physicochemical; details: 37 °C, 72 h, pH 3–9
Method: The diastereomeric mixture of each β-glucuronide–PHB-β-lapachone prodrug (16a–j) and PAB derivative 22 were then tested for stability in citrate-phosphate buffers across a range of pHs (3, 5, 7, 7.4 (PBS), 9) via an HPLC stability assay. For derivatives 16a, 16b, 16d, 16e, 16h, and 16j, when no β-glucuronidase enzyme was added, both diastereomers of 16 were fully stable at 37 °C for 72 h (Figures a,d, S63, S64, S66–68, S71, and S73). […] This premature release was greatest at acidic pH 3 for 16g, with very minimal lapachone release detected at pH 5–9 (Figure c). The released lapachone was quantified and compared to the starting concentration of each prodrug to calculate the percent of the prodrug that had been prematurely released (Figures f,g, S76). […] Therefore, a trade-off exists between ring activation, improving the release rate from 3 while also decreasing prodrug stability, and it rendered 16g clinically disadvantageous.  5 Stability of prodrugs is pH dependent. The representative HPLC traces for (a) a stable prodrug 16a and (b) an unstable prodrug 16g are shown after incubation at 37 °C in pH 7.4 PBS buffer. […] (c) The area of the lapachone peak for 16g normalized to the IS was plotted, displaying substantial growth over time at pH 3. […] For panels c–g, each value is plotted as the mean ± SD of three replicates. The HPLC traces (Figures S50–S62) and peak area graphs (Figures S63–S75) for all other derivatives can be found in the Supporting Information. The stability of 26 was also evaluated from pH 3–9 (Figures d,f–h S86–S87). […] This degradation was the largest at pH 9, with a measurable decrease in the prodrug peak area after 72 h (Figure g). The lapachone released after 72 h was quantified using a standard curve (Tables S6.1–S6.2). At pH 3 and 5, approximately 0.2% of the total prodrug lapachone had been released.

AsPC-1 [4] = experiment: Reactive oxygen species generation after 24 h treatment, AsPC-1; assay type: cell-based
Description: (§4) 8 Target expression, ROS production, and quinone methide toxicity in PDAC Cell Lines. […] The A549 cell line was used as a positive control for NQO1 enzyme expression, and the HL-60 cell line was used as a positive control for 5-LO enzyme expression. For β-glucuronidase expression, two consecutive technical replicates are shown for each biological replicate, with all three biological replicates represented for both cell lines. […] Results were normalized to baseline cellular ROS activity as 0 and positive control tert-butyl hydrogen peroxide (TBHP) as 100. Adjusted p-values of 0.0012 (**) and <0.0001 (****) are shown for statistically significant comparisons.

PANC-1 [5] = experiment: Reactive oxygen species generation after 24 h treatment, PANC-1; assay type: cell-based
Description: as §4

[6] = Release of β-lapachone (1) from deprotected PHB/PAB linkers (3 or 25) in citrate-phosphate buffers pH 3–10, analytical HPLC; assay type: physicochemical
Method: First, the purified mixture of two prodrug diastereomers (16a–j) for each PHB derivative was incubated with β-glucuronidase. This enabled full removal of the glucuronide moiety from both diastereomers of the prodrug within 2–15 min, leaving a mixture of two PHB-β-lapachone enantiomers (3a–j, Figure c). For PAB compound 22, penicillin G amidase was used in place of β-glucuronidase to give a mixture of two PAB-β-lapachone enantiomers (25). The 3 (or 25) solution was then spiked into citrate-phosphate buffers from pH 3–10, and release of 1 from 3 (or 25) was measured at various time points by analytical HPLC. A single peak for the two enantiomers of 3 was observed after glucuronide removal, and thus the measured k obs was for both enantiomers in the mixture.
3 Release rate comparison for PHB and PAB prodrugs. The mechanisms of release for the β-glucuronide–PHB prodrug derivatives (a) and the PAB derivative (b) are shown. β-glucuronidase or penicillin G amidase deprotects the PHB or PAB linkers, yielding 3 or 25, respectively. A 1,6-elimination then occurs, releasing the hydroquinone form of β-lapachone, which then oxidizes into the ortho-quinone. (c) The substituents on the PHB/PAB linker for each derivative are shown and classified into which strategy they employed, lowering phenolate pK a or stabilizing the elimination TS. BLap = β-lapachone in its α-hydroxy ketol form (refer to panel a). The predicted pK a values are also shown, calculated using MolGpKa. (d) The representative HPLC traces of a release experiment for 3g at pH 7 are shown (RT: retention time) normalized to the warfarin (WF) internal standard (IS, RT = 11.6 min). The peak for 3g (RT = 12.5 min) decreases while the peak for 1 (RT = 10.8 min) increases over time. The traces for all other derivatives at each pH are included in Figures S10–S20, S34–S45. (e) The calculated k obs values from these release kinetic experiments for each PHB derivative are plotted versus pH on a logarithmic scale. Derivatives 3a–e were designed to lower the PHB phenol pK a, while derivatives 3f–j were designed to stabilize the 1,6-elimination TS. (f) The first-order reaction rate constants of the PAB derivatives 4 (pink) and 25 (purple) are plotted together with 3a (black) and the best-performing PHB derivatives 3f (cyan) and 3i (dark green) for direct comparison. The derivations of the plotted first-order k obs values from linearized initial velocities measured in triplicate are shown in Figures S23–S33. […]
Over time, the intensity of the 3/25 peak decreased, while the intensity of the 1 peak increased (Figure d). A standard curve for β-lapachone (Figure S22) was prepared, enabling quantification of the released β-lapachone.

[7] = set-up: method as in Dunsmore et al.; details: k obs of compound 4 previously reported, ref Dunsmore et al., cited from earlier work
[8] = HPLC stability assay of prodrugs in buffers pH 3, 5, 7, 7.4 (PBS), 9 at 37 °C for 72 h without trigger; assay type: physicochemical; details: after dilution into aqueous buffer
[9] = set-up: method as in Gong et al.; details: pH 7.4; 5 equiv H2O2; ref Gong et al.; cited from earlier work
[10] = no extracellular enzyme, compared to β-lapachone

Compound: COc1cc(O[C@@H]2O[C@H](C(=O)O)[C@@H](O)[C@H](O)[C@H]2O)ccc1CC1(O)C(=O)C2=C(OC(C)(C)CC2)c2ccccc21 (mixture of isomers) [16f]
- IC50 (PANC-1 [1]; average ± SD of biological replicates, read-out: PANC-1 IC50): 700 ± 200 nM
- IC50 (PANC-1 [1]; representative experiment, read-out: IC50 on PANC-1, representative viability data (Figure 7a)): 600 nM
- IC50 (AsPC-1 [2]): 2900 ± 60 nM
- stability of the prodrug without triggering enzyme [3]: trace β-lapachone release was detected
- ROS generation without β-glucuronidase (AsPC-1 [4]; [10]): significantly less ROS than β-lapachone alone
- ROS generation with β-glucuronidase (AsPC-1 [4]; β-glucuronidase added): restored generation of ROS
- ROS generation without β-glucuronidase (PANC-1 [5]; [10]): significantly less ROS than β-lapachone alone
- ROS generation with β-glucuronidase (PANC-1 [5]; β-glucuronidase added): restored generation of ROS

Compound: COc1cc(O)cc(OC)c1CC1(O)C(=O)C2=C(OC(C)(C)CC2)c2ccccc21 (stereo not drawn) [3g]
- acceleration of release rate at pH 5 ([6]; pH 5, compared with unsubstituted 3a): ~2200 fold
- acceleration of release rate at pH 7.5 ([6]; pH 7.5, compared with unsubstituted 3a): ~800 fold

Compound: CC1(C)CCC2=C(O1)c1ccccc1C(O)(Cc1ccc(N)cc1)C2=O (stereo not drawn) [compound 4]
- half-life of quinone release at pH 5 ([7]; pH 5): 101 ± 7 h
- t 1/2 at pH 6 (drug release half-life) ([7]; pH 6): 931 h

Compound: CC1(C)CCC2=C(O1)c1ccccc1C(O)(Cc1ccc(B3OC(C)(C)C(C)(C)O3)cc1)C2=O (stereo not drawn) [compound 24]
- time to complete hydrolysis into boronic acid 26 [8]: ≤ 5 min
- time to complete release of 1 [9]: ≤ 2 h

Compound: COc1cc(N)ccc1CC1(O)C(=O)C2=C(OC(C)(C)CC2)c2ccccc21 (stereo not drawn) [compound 25]
- release rate faster than unsubstituted parent ([6]; 3f vs 3a, 25 vs 4): around 2 orders of magnitude
